Patent US10010612B2 (Indivior UK Limited, priority 2007, dated 2018)

How the values were obtained:
[1] = Risperidone release from ATRIGEL implants in rats (implant retrieval; 24-hour burst, 14-day and 28-day studies); assay type: in vivo, Sprague-Dawley rats; details: 28 days
Description: The retrieved implants and tissue were placed in a −86° C. freezer for at least 1 hour. The frozen samples were lyophilized for at least 4 hours. The dry samples were minced with scissors, which were cleaned after each sample to minimize cross-contamination. The samples were minced until powder-like. Approximately 5 mL of 70:30 dimethylsulfoxide/methanol with 1% polyethyleneimine extraction solvent was added to each sample. The samples were mixed overnight at about 200 rpm at 37° C. on the orbital shaker. The samples were sonicated for 10 minutes. 1.5 mL of the extract was loaded into a 3 mL lure lock syringe and filtered through a 0.2 μm pore size filter into a clean test tube. 1 mL of the filtrate was placed into a clean test tube and 4 mL of 50:50 acetonitrile/H2O was added. The test tube was vortexed for 30 seconds. About 2 mL of the solution was loaded into a 3 mL lure lock syringe and filtered into an High Performance Liquid Chromatography vial.

[2] = limit of solubility
[3] = powder in polypropylene syringes, 5.8 to 31 KGy
Description: The eight formulations prepared for testing were sterilized in glass vials and gamma resistant polypropylene copolymer syringes using various dose levels of irradiation.
The dose level was 30 to 33 KGy for each of the samples.
Syringes and glass vials obtained from the gamma radiation testing were analyzed with the control formulations.
These were loaded into gamma-irradiation polypropylene syringes and capped.

[4] = Calculated risperidone release and plasma levels in dogs from in vitro release (in vitro to in vivo correlation); details: suggested by calculated release and apomorphine data

SMILES: Cc1nc2n(c(=O)c1CCN1CCC(c3noc4cc(F)ccc34)CC1)CCCC2 [Risperidone, 4-[2-[4-(6-fluorobenzo[d]isoxazol-3-yl)-1-piperidyl]ethyl]-3-methyl-2,6-diazabicyclo[4.4.0]deca-1,3-dien-5-one]
- stability of risperidone in ATRIGEL implants [1]: stable in ATRIGEL® implants for 28 days
- solubility in N-methyl-2-pyrrolidone [2]: up to 5 % by weight
- color after gamma irradiation [3]: turned beige at the lowest level of irradiation
- minimum daily dose of risperidone needed in dogs for a biological response [4]: about 0.6 mg
